The values that follow come from patent US20250034200A1, “Prodrugs of Neurosteroid Analogs and Uses Thereof” (priority 2021, published 2025).

Each structure is given as a SMILES string. Converted amounts (≈) assume the structure as drawn. Where a name gives a salt, the structure may show the parent alone. Read-outs that look alike come from different tables or passages of the source.

As a reminder, the solubility is the dissolved amount per volume that the medium holds. Read a low solubility as little dissolved substance.

Series [1] is described as follows: Plasma stability assay (LC-MS/MS). Conditions: human plasma, 37° C., 3 μM; for half-life: read-out: Plasma t1/2 (converted). It counts as in vitro ADME. The protocol:
Procaine and procainamide were purchased from Sigma Aldrich. HPLC-grade acetonitrile, water, methanol, and formic acid were purchased from Fisher Scientific. Human plasma (Cat. No. […]2N) was obtained from BIOIVT, and PBS (1×Dulbecco's, pH 7.4) from Thermo Fisher Scientific.
Test compounds were dissolved in DMSO to make a stock solution of 10 mM and then diluted to 500 μM in buffer or 70% methanol. Human plasma was thawed at ambient temperature and aliquoted (994.0 μL) to a 1.5 mL Eppendorf tube in duplicates (vials A and B) for each compound. The plasma was incubated at 37° C. for 10 min in an incubator shaker at 150 RPM; the reaction was initiated by addition of the test compound (6.0 μL), followed by vortex mixing. The total reaction volume was 1000 μL, the final organic solvent concentrations were […] (when 70% methanol was used for dilution) and 0.03% DMSO, and the final concentration of the test compound was 3 μM. The spiked plasma samples were incubated at 37° C. for 4 h. The reactions were terminated at time point 0, 15, 30, 60, 120, 180, and 240 min by taking a 100 μL aliquot from the test incubation mixture and immediately quenching it by adding it into ice-cold acetonitrile or methanol (150 μL) containing 2 μM internal standard (ISTD), followed by vortex mixing. The ISTD was d5-7-ethoxy coumarin. The samples were then centrifuged at 15000 RPM for 25 min at 4° C., and the supernatant was transferred to an LC-MS vial for analysis by LC-MS/MS. Each time point was tested in duplicates followed by in-between blank washes to avoid carryover and to equilibrate the column.
Procaine (poor plasma stability) and procainamide (good plasma stability) were used as controls at the same concentration as that of the test compound. These controls were run in parallel to test the assay's competency. Matrix blank was prepared by adding acetonitrile or methanol containing ISTD to plasma samples without any of the test or control compounds. Also, an additional control sample was made to simply monitor compound degradation in PBS buffer.
Below is a summary of samples prepared for a given test compound in a typical plasma stability assay: • Test compound (TC): 994 μL human plasma+6.0 μL TC (Vial A) 994 μL human plasma+6.0 μL TC (Vial B) • Control: 596 μL human plasma+3.6 μL (procaine+procainamide) • Blank matrix: 500 μL PBS buffer+100 μL human plasma • Additional control: 142 μL PBS buffer+0.9 μL TC • Quenching mixture: 150 μL acetonitrile or methanol with ISTD (2 μM) • Final volume: 250 μL (100 μL from the incubation mixture+150 μL quenching mixture; final ISTD conc.: 1.2 μM)
LC-MS/MS analysis was performed using Agilent 1260 Infinity II HPLC, coupled with an Agilent G6460 triple quadrupole mass spectrometer (Agilent Technologies, USA). The data were acquired and processed using the Agilent 6460 Quantitative Analysis data processing software.
Reverse-phase HPLC separation for each compound was achieved on an Agilent InfinityLab Poroshell 120 C18 column (2.1×50 mm, 2.7 μm) with a mobile phase composed of methanol/water with 0.1% formic acid or acetonitrile/water with 0.1% formic acid at a flow rate of 0.5 mL/min. Each method was developed in the presence of the ISTD. The column temperature was maintained at 40° C. The detection was operated using the Agilent Jet-Stream electrospray positive ionization under the multiple reaction monitoring mode. The mass spec conditions were as follows: dwell time 100 ms; gas flow 10 L/min; nebulizer pressure 45 psi; delta EMV 200 V.
Plots of time (x-axis) vs. the natural logarithm of percent parent remaining (y-axis) were subsequently constructed to determine the slope. Finally, the plasma stability was evaluated using the following equation: […]

Series [2] can be described thus: Aqueous stability assay (HPLC, pseudo first-order half-life). The class given is physicochemical. To be noted: DPBS pH 7.0-7.3, 1 mg/mL, room temperature; for half-life at 1 mg/mL / half-life: buffer, read-out: PBS t1/2 (converted). Here is the method:
Aqueous stability experiments were performed on an Agilent 1100 HPLC equipped with an Agilent 1200 autosampler. HPLC grade solvents were exclusively used during analysis, with acetonitrile being purchased from Sigma Aldrich, and water and formic acid provided by Fisher Scientific. […]
[…] All mixtures were then sonicated for 5 min or stirred until complete dissolution was achieved. Any precipitate observed in sample solutions was filtered with a PTFE syringe filter prior to analysis. Immediately after sample preparation, injection by the HPLC autosampler was performed, which was recorded as the initial time point (t=0 min). Samples were then kept in the autosampler at room temperature and injected at designated intervals without additional filtration or sample modification. Next, the area of the parent peak in each chromatogram was determined by automated integration in the Agilent ChemStation software. Pseudo first-order half-lives were then ascertained by calculating the percent of the parent compound remaining after each time point. Plots of time (x-axis) vs. the natural logarithm of percent parent remaining (y-axis) were subsequently constructed to determine the slope. Finally, the aqueous stability was evaluated using the following equation:
The HPLC conditions were as follows: injection volume, 1 μL; column temperature: 40° C.; detector: 254 nm; stationary phase: Zorbax Eclipse XDB-C18 (4.6×150 mm, 5 μm); flow rate: 1 mL/min; mobile phase: 80-95% acetonitrile in H2O (0.1% formic acid).

Series [3] is described as follows: Nephelometry (aqueous solubility). The class given is physicochemical. Conditions: DPBS with 1% DMSO, aqueous buffer, kinetic from dmso stock, DPBS pH 7.0-7.3, 1% DMSO, 25° C. The source says:
Well A1 of the plate contained 100% DMSO.

Take `C/C(=N\OC(=O)NCCN)[C@H]1CC[C@H]2[C@@H]3CCC4=CC(=O)CC[C@]4(C)[C@H]3CC[C@]12C` [32a, (8S,9S,10R,13S,14S,17S)-17-((E)-1-((((2-aminoethyl)carbamoyl)oxy)imino)ethyl)-10,13-dimethyl-1,2,6,7,8,9,10,11,12,13,14,15,16,17-tetradecahydro-3H-cyclopenta[a]phenanthren-3-one hydrochloride]: the “Plasma t1/2” value in series [1] is greater than 2 h. Also, the half-life at 1 mg/mL in series [2] was greater than 30 h. In series [3], this compound showed a solubility at 90 min greater than 750 µM.

As to `C/C(=N\OC(=O)NC[C@@H]1CCCCN1)[C@H]1CCC2[C@@H]3CCC4=CC(=O)CC[C@]4(C)[C@H]3CC[C@@]21C` (stereo partly drawn) [32i, (8S,9S,10R,13S,17S)-10,13-dimethyl-17-((E)-1-((((((S)-piperidin-2-yl)methyl)carbamoyl)oxy)imino)ethyl)-1,2,6,7,8,9,10,11,12,13,14,15,16,17-tetradecahydro-3H-cyclopenta[a]phenanthren-3-one hydrochloride], the half-life at 1 mg/mL in series [2] (d (days)) was 684 h. The compound also returned a solubility at 90 min in series [3] greater than 750 µM.

Take `CNCCN(C(=O)O/N=C(\C)[C@H]1CC[C@H]2[C@@H]3CCC4=CC(=O)CC[C@]4(C)[C@H]3CC[C@]12C)C1CCC1.O=C(O)C(F)(F)F` [53c, (E)-5-cyclobutyl-9-((8S,9S,10R,13S,14S,17S)-10,13-dimethyl-3-oxo-2,3,6,7,8,9,10,11,12,13,14,15,16,17-tetradecahydro-1H-cyclopenta[a]phenanthren-17-yl)-7-oxa-2,5,8-triazadec-8-en-6-one 2,2,2-trifluoroacetate]: in series [2], the “PBS t1/2” value is 11.79 ± 0.51 h. The compound further returned a solubility at 90 min in series [3] greater than 750 µM.

Turning to `CNCCN(CCN(C)C)C(=O)O/N=C(\C)[C@H]1CC[C@H]2[C@@H]3CCC4=CC(=O)CC[C@]4(C)[C@H]3CC[C@]12C.O=C(O)C(F)(F)F` [53f, (E)-9-((8S,9S,10R,13S,14S,17S)-10,13-dimethyl-3-oxo-2,3,6,7,8,9,10,11,12,13,14,15,16,17-tetradecahydro-1H-cyclopenta[a]phenanthren-17-yl)-2-methyl-5-(2-(methylamino)ethyl)-7-oxa-2,5,8-triazadec-8-en-6-one 2,2,2-trifluoroacetate], the “PBS t1/2” value in series [2] is 2.17 ± 0.02 h. Besides, the solubility at 90 min in series [3] was greater than 500 µM.

Consider `CNCCN(CCNC)C(=O)O/N=C(\C)[C@H]1CC[C@H]2[C@@H]3CCC4=CC(=O)CC[C@]4(C)[C@H]3CC[C@]12C.Cl.Cl` [53i, (E)-9-((8S,9S,10R,13S,14S,17S)-10,13-dimethyl-3-oxo-2,3,6,7,8,9,10,11,12,13,14,15,16,17-tetradecahydro-1H-cyclopenta[a]phenanthren-17-yl)-5-(2-(methylamino)ethyl)-7-oxa-2,5,8-triazadec-8-en-6-one dihydrochloride], for which, in series [2], the “PBS t1/2” value turned out to be 1.51 ± 0.05 h. The compound also had a solubility at 90 min in series [3] greater than 750 µM.

`C/C(=N\OC(=O)N(CCN)CCN)[C@H]1CC[C@H]2[C@@H]3CCC4=CC(=O)CC[C@]4(C)[C@H]3CC[C@]12C.O=C(O)C(F)(F)F.O=C(O)C(F)(F)F` [53j, (8S,9S,10R,13S,14S,17S)-17-((E)-1-(((bis(2-aminoethyl)carbamoyl)oxy)imino)ethyl)-10,13-dimethyl-1,2,6,7,8,9,10,11,12,13,14,15,16,17-tetradecahydro-3H-cyclopenta[a]phenanthren-3-one bis(2,2,2-trifluoroacetate)]: in series [2], the “PBS t1/2” value amounted to 10.13 ± 0.41 h. The same compound showed a solubility at 90 min in series [3] greater than 750 µM.

Turning to `C/C(=N\OC(=O)N(C)CCO)[C@H]1CC[C@H]2[C@@H]3CCC4=CC(=O)CC[C@]4(C)[C@H]3CC[C@]12C` [compound 33, (8S,9S,10R,13S,14S,17S)-17-((E)-1-((((2-hydroxyethyl)(methyl)carbamoyl)oxy)imino)ethyl)-10,13-dimethyl-1,2,6,7,8,9,10,11,12,13,14,15,16,17-tetradecahydro-3H-cyclopenta[a]phenanthren-3-one], the half-life in series [2] was 38.5 h. Further, the solubility at 90 min in series [3] came to 124 ± 3.28 µM (≈ 53.3 µg/mL).

Take `C/C(=N\OC(=O)OCCN(C)C)[C@H]1CC[C@H]2[C@@H]3CCC4=CC(=O)CC[C@]4(C)[C@H]3CC[C@]12C.Cl` [compound 35, (E)-9-((8S,9S,10R,13S,14S,17S)-10,13-dimethyl-3-oxo-2,3,6,7,8,9,10,11,12,13,14,15,16,17-tetradecahydro-1H-cyclopenta[a]phenanthren-17-yl)-2-methyl-5,7-dioxa-2,8-diazadec-8-en-6-one hydrochloride]: in series [1], the “Plasma t1/2” value amounted to 7.2 h. The half-life in series [2] was 3.5 ± 0.6 h.

In the case of `CNCCCN(C)C(=O)O/N=C(\C)[C@H]1CC[C@H]2[C@@H]3CCC4=CC(=O)CC[C@]4(C)[C@H]3CC[C@]12C.Cl` [compound 39, (E)-10-((8S,9S,10R,13S,14S,17S)-10,13-dimethyl-3-oxo-2,3,6,7,8,9,10,11,12,13,14,15,16,17-tetradecahydro-1H-cyclopenta[a]phenanthren-17-yl)-6-methyl-8-oxa-2,6,9-triazaundec-9-en-7-one hydrochloride], the “Plasma t1/2” value in series [1] is on record as greater than 4 h. Moreover, in series [2] (d (days)), the half-life is greater than 720 h.

With `CNCC(C)(C)CN(C)C(=O)O/N=C(\C)[C@H]1CCC2[C@@H]3CCC4=CC(=O)CC[C@]4(C)[C@H]3CC[C@@]21C.Cl` (stereo partly drawn) [compound 40, (E)-10-((8S,9S,10R,13S,17S)-10,13-dimethyl-3-oxo-2,3,6,7,8,9,10,11,12,13,14,15,16,17-tetradecahydro-1H-cyclopenta[a]phenanthren-17-yl)-4,4,6-trimethyl-8-oxa-2,6,9-triazaundec-9-en-7-one hydrochloride], the half-life in series [1] was greater than 4 h; in series [2] (d (days)), 547 h.

For the compound `C/C(=N\OC(=O)N(C)CCNCCOC(F)(F)F)[C@H]1CC[C@H]2[C@@H]3CCC4=CC(=O)CC[C@]4(C)[C@H]3CC[C@]12C.Cl` [compound 41, (E)-12-((8S,9S,10R,13S,14S,17S)-10,13-dimethyl-3-oxo-2,3,6,7,8,9,10,11,12,13,14,15,16,17-tetradecahydro-1H-cyclopenta[a]phenanthren-17-yl)-1,1,1-trifluoro-8-methyl-2,10-dioxa-5,8,11-triazatridec-11-en-9-one hydrochloride], the half-life in series [1] was 1.1 h; in series [2] it was 28.5 ± 1.8 h.
